Measurements from patent US20100190713A1, “USE OF THE PEPTIDE THYMOSIN BETA 4 ALONE OR IN COMBINATION WITH CECROPIN A AS A THERAPEUTIC AGENT” (priority 2007, published 2010).
Where no end group is shown, it is not given here.

What was measured:
[1] = system: RAW 264.7 (Mouse leukaemic monocyte macrophage cell line) cells; experiment: Phagocytosis assay (Fluorescein-labeled Escherichia coli, flow cytometry); format: cell-based; settings: 10 micrograms per ml
Method: RAW 264.7 (Mouse leukaemic monocyte macrophage cell line) cells were obtained from ATCC and grown in RPMI 1640 medium containing 10% FBS. Cells were incubated in 12×75 mm tubes at 37° C. with test peptides—10 micrograms per ml—for 30 min prior to adding Fluorescein-labeled Escherichia coli bacteria as the agent to be ingested. After the cells were incubated for additional 60 min at 37° C. and allowed to ingest the Fluorescein-labeled Escherichia coli bacteria, cells were fixed with 1% paraformaldehyde. The samples were then analyzed by flow cytometry to determine the amount of phagocytosis as a function of brightness (the greater the phagocytic activity, the more fluorescence in the macrophage population). Data are reported as % positive and the mean fluorescence intensity (MFI) of positively stained cells.

[2] = system: hepatitis B virus (HBV) ayw strain; experiment: HBV experimental assay system, HepG2-2.2.15, secreted HBV DNA by TaqMan PCR; format: cell-based; settings: 10 micrograms per ml; HepG2-2.2.15, six days
murine spleen cells = experiment: Th1/Th2 cytokine profiling assay (Ovalbumin-restimulated spleen cells, CBA kit); format: cell-based, Balb/c mice; settings: 10 micrograms per ml, 72 hours
HUVEC = experiment: Endothelial tube formation assay; format: cell-based, human; settings: 10 micrograms per ml, 20 hours
Text: Positive control wes vehicle only.

[3] = system: Primary Human endothelial cells (HUVEC); experiment: Endothelial cell migration assay; format: cell-based; settings: 10 micrograms per ml, 22 hours
Method: Thereafter, designated concentration of testing peptides—10 micrograms per ml—was added in duplicate wells.

HCMV strain AD169 = experiment: HCMV plaque formation assay in MRC-5 cells; format: cell-based; settings: 10 micrograms per ml, 7-10 days
Text: Ganciclovir was used as positive control.

Substance	induction of phagocytosis as compared to the virus control experiment [1]	inhibition of HBV replication as compared to the virus control infection [2]	production of IFN-γ (decreased by) (murine spleen cells)	production of IL-2 (decreased by) (murine spleen cells)	production of IL-4 (induced by) (murine spleen cells)	production of IL-5 (decreased by) (murine spleen cells)	production of TNF-alpha (change) (murine spleen cells)	inhibition of the tube formation of human endothelial cells (HUVEC)	inhibition of the migration of human endothelial cells [3]	inhibition of HCMV plaque formation as compared to the virus control experiment (HCMV strain AD169)
Ac-Ser-Asp-Lys-Pro-Asp-Met-Ala-Glu-Ile-Glu-Lys-Phe-Asp-Lys-Ser-Lys-Leu-Lys-Lys-Thr-Glu-Thr-Gln-Glu-Lys-Asn-Pro-Leu-Pro-Ser-Lys-Glu-Thr-Ile-Glu-Gln-Glu-Lys-Gln-Ala-Gly-Glu-Ser-OH (SDKPDMAEIEKFDKSKLKKTETQEKNPLPSKETIEQEKQAGES; printed: Ser-Asp-Lys-Pro-Asp-Met-Ala-Glu-Ile-Glu-Lys-Phe-Asp-Lys-Ser-Lys-Leu-Lys-Lys-Thr-Glu-Thr-Gln-Glu-Lys-Asn-Pro-Leu-Pro-Ser-Lys-Glu-Thr-Ile-Glu-Gln-Glu-Lys-Gln-Ala-Gly-Glu-Ser-) [Peptide 1]	45.7%	no effect	52.7%	did not significantly change	31.6%	did not significantly change	did not significantly change	–	–	–
Lys-Trp-Lys-Leu-Phe-Lys-Lys-Ile-Glu-Lys-Val-Gly-Gln-Asn-Ile-Arg-Asp-Gly-Ile-Ile-Lys-Ala-Gly-Pro-Ala-Val-Ala-Val-Val-Gly-Gln-Ala-Thr-Gln-Ile-Ala-Lys-NH2 (KWKLFKKIEKVGQNIRDGIIKAGPAVAVVGQATQIAK-NH2) [Peptide 2]	did not induce phagocytosis	10.5%	65.6%	42.7%	did not significantly change	37.0%	did not significantly change	10%	15%	2.1%
